The record followed here is US5332733A, “Heterocyclically substituted piperazinoakylbenzoxazine and piperazinoalkylbenzothiazine compounds, processes for preparing them, and medicaments containing them” (Kali-Chemie Pharma GmbH, priority 1990, dated 1994).

The target of data set [1] is T1, histamine-(H1)-receptor (Cavia porcellus, UniProt P31389).
T1 construct: Segments of the ileum 1.5 cm long from Dunkin Hartley guinea pigs; from tissue; host or cells: isolated ileum of Dunkin Hartley guinea pigs
The experiment in a line: Histamine-(H1)-receptor antagonism in vitro, histamine-induced contractions of isolated ileum. It counts as cell-based, guinea pig (Dunkin Hartley). As to conditions: test substance 10^-6 mole/l, histamine 5 × 10^-6 mole/l. The method, then: 3. Investigation of Anti-Histamine-(H1) Effect Based on Histamine-(H1)-Receptor Antagonism In Vitro
To investigate the histamine-(H1)-receptor antagonism of the test substances, the inhibiting effect of the substances on histamine-induced contractions of the smooth muscle was determined in vitro on the isolated organ. Isolated strips of organ from the ileum are suitable for this purpose. In an organ bath of physiological saline solution the smooth muscle strips react to the addition of histamine by contracting. […] The extent of regression of the contraction is an indication of the anti-histamine-(H1) activity of the compounds. The investigation was carried out analogously to the method originally described by Magnus (Pfluegers Arch. 102, 123 (1904)).
Procedure for determining the smooth muscle contraction inhibiting effect on isolated guinea pig ileum induced by a 5×10^-6 molar histamine concentration
Segments of the ileum 1.5 cm long from Dunkin Hartley guinea pigs having a body weight of 300 500 g were used for the test. Each strip was placed in an organ bath of 10 ml of physiological saline solution according to Krebs-Henseleit and attached to a conventional apparatus for isotonic measurement of changes in length of the ileum strips (automated Celaster measuring apparatus), so that the tissue was under 1 g of tension. The bath was kept at a pH of 7.4 and gassed with a mixture of 5% CO2 and 95% O2. After an equilibration phase, an isotonic contraction of the tissue was induced by adding histamine in a final concentration of 5×10^-6 mole/liter and washing it out again after a contact time of 30 seconds. Only tissues samples from which three reproducible contractions were obtained at 10 minute intervals were used in the subsequent test. The test substances were then added in a final concentration of 10^-6 mole/liter, and after 30 seconds contact time histamine was again added up to a concentration of 5×10^-6 mole/liter. The resulting contractions were measured over 30 seconds. The tissue was then washed several times over a period of 10 minutes. Histamine was then added again to stimulate a contraction. The resulting contractions were again measured over 30 seconds. The difference between the amplitude of the contraction obtained by histamine addition alone and the amplitude of the contraction obtained in the presence of the test substance was determined and expressed in terms of % inhibition.
The inhibiting effects on the contractions induced by histamine 30 seconds after administration of the test substance and on the contractions induced by the addition of histamine 10 minutes later are listed in the table.

For data set [2], the system named is passive cutaneous anaphylaxis (PCA). The experiment in a line: Inhibition of passive cutaneous anaphylaxis (PCA) in rats. The class given is in vivo, Sprague-Dawley rats. As to conditions: Rattus norvegicus, 1 h, 2 × 10^-5 mole/kg per os, one hour before ovalbumin challenge. On the procedure: (§1) 1. Determining Inhibition of Passive Cutaneous Anaphylaxis (PCA) and Histamine-Induced Anaphylactoid Cutaneous Reaction
The PCA reaction is carried out following the methods described by Goose et al. (J. N. Immunology 16 (1969), 749) and by Martin et al. (Arch. Pharmacol. 316 (1981), 186).
The IgE-rich ovalbumin antiserum used in the test was obtained from immunized Brown-Norway rats. The were immunized with an intraperitoneal injection of a mixture of 100 μg of ovalbumin with a Bordetella pertussis suspension (Vaxicoq™, Manufactured by Institute Merieux, containing 5×10^9 organisms and 1.25 mg Al(OH)3). After 20 days the animals were re-immunized with a further intraperitoneal injection of a solution of 10 μg ovalbumin in 0.5 ml physiological saline solution. After a further four days the blood was removed from the animals and centrifuged. The resulting antiserum was stored at -20° C. until use.
(§2) The inhibition of the passive cutaneous anaphylaxis and of the anaphylactoid cutaneous reaction induced by histamine was determined as follows:
(§3) Sprague-Dawley rats having a body weight of 150-180 g were injected intradermally in one flank with 50 μl of a 1:75 dilution of the IgE-rich ovalbumin antiserum in physiological saline solution to passively sensitize them to ovalbumin.
(§4) 24 hours after sensitization a solution of 8.25 mg/kg of ovalbumin and 26.4 mg/kg of a blue dye (Evans's Blue) was administered to the rats intravenously according to Martin et al. to trigger passive cutaneous anaphylaxis.
(§5) On the day of the experiment the test substances were dissolved in distilled water which contained 1 vol. % dimethylformamide and 1 vol. % of Tween™ 20 (=polyoxyethylene (20) sorbitan monolaurate). One hour before administration of the ovalbumin challenge, each animal was orally administered 2×10^-5 mole/kg of test substance in 0.5 ml of solution. For comparison purposes a control group received only the solvent.
(§6) The edematous anaphylactic (PCA) and anaphylactoid (histamine-induced) reactions caused by the stimulation of the intravenous ovalbumin injection, which manifested themselves by edema formation, swelling and exudation of blue dye, were evaluated 30 minutes after their initiation by the intravenous ovalbumin injection. This was done by visually determining the extent to which the blue dye emerged at the sites of edema formation. The percentage inhibition of anaphylactic and anaphylactoid reactions induced by the test substances in comparison with the reactions of the control animals not treated with any test substance was determined using comparison scales.
(§7) The results obtained using compounds of formula I according to the foregoing test methods are shown in the following Table A. The example numbers given for the compounds of formula I relate to the subsequent preparative examples.

Data set [3] relates to histamine-induced anaphylactoid cutaneous reaction. The experiment in a line: Inhibition of histamine-induced anaphylactoid cutaneous reaction in rats. It counts as in vivo, Sprague-Dawley rats. Particulars: Rattus norvegicus, 1 h, 2 × 10^-5 mole/kg per os, one hour before ovalbumin challenge. On the procedure: as §1, §2, §3, §4
To determine the histamine-induced anaphylactoid skin reaction, the animals are injected intradermally in the flank opposite to the antiserum administration with 50 μl of a physiological saline solution containing 0.8 mg/ml histamine directly before the intravenous injection of the solution containing the ovalbumin and the blue dye.
as §5, §6, §7

In data set [4] the test system is PAF-induced aggregation of rabbit blood platelets. Nature of the data set: Anti-PAF activity in vitro, PAF-induced platelet aggregation. It counts as cell-based, rabbit (New Zealand hybrids). Particulars: Oryctolagus cuniculus, test substance 10^-5 mole/l, pH 7.4. The source says:
4. Determination of Anti-PAF Activity In Vitro
PAF (=Platelet Activating Factor) is a phospholipid mediator which has many effects. Activation of platelet aggregation induces protracted broncho-contraction and hyper-reactivity of the air paths.
In this test the effect of the test substances on platelet aggregation induced by adding PAF to a suspension of platelets obtained from rabbit blood is investigated using the method described by Mikashima et al. (Jap. J. Pharmacol. 44 (1987) 387-391).
A suspension of platelets obtained from rabbit blood containing 4×10^9 platelets/ml in a modified Tyrode buffer solution (=Tyrode solution with 1.3 mM/l CaCl2 and 2.5 g/l gelatine added) adjusted to pH 7.4 was used. Tyrode solution is an aqueous solution containing 136.9 mmoles NaCl, 2.68 mmoles KCl, 2.31 mmoles CaCl2, 1.0 mmole MgCl2, 11.9 mmoles NaHCO3, 1.45 mmoles NaH2 PO4 and 5.55 mmoles glucose per liter. The platelets were obtained from 10 ml blood samples from each of three rabbits (New Zealand hybrids, body weight 3-4 kg). For this the blood samples were treated with ethylenediamine tetraacetic acid and washed according to the method of Artley et al. (Brit. J. Hematol. 19 (1970), 7-17). A platelet-rich plasma was then initially separated by centrifuging (20 minutes at 400×g). The blood platelets were separated from the plasma by recentrifuging for 15 minutes at 1,400×g. The platelets remaining as sediment after centrifuging were resuspended in a Tyrode buffer solution (but without calcium). 0.4 mmole of lysine acetylsalicylate was then added, and after 15 minutes the platelets were sedimented again. The sediment was resuspended in the aforementioned modified Tyrode buffer solution, and the number of platelets in the resulting suspension was adjusted to the desired content.
A 40×10^-9 molar PAF solution was used as a reagent. This solution was made from a 1.8×10^-3 molar stock solution in chloroform. For this purpose a 10 μl sample of the stock solution was evaporated to dryness and redissolved in 180 μl of the modified Tyrode solution to which 0.25% of lipid-free bovine serum albumin had been added. From this 10^-5 molar working solutions were then prepared and stored frozen. Samples of these solutions were appropriately diluted for the tests.
To carry out the test 50 μl of the platelet suspension and 10 μl of a 40×10^-5 molar solution of the compound being investigated were added with stirring (1,000 rpm) to 330 μl of the modified Tyrode buffer solution in an aggregation tube provided with a small magnetic stirrer. This corresponds to a final test substance concentration of 10^-5 mole/l. After 90 seconds preincubation time, 10 μl of the PAF preparation were added. The aggregation occurring in the aggregation tubes was measured over 4-5 minutes with the aid of a computerized aggregometer.
The aggregation which occurred in test tubes containing only platelet suspension was evaluated as 0%, whereas the aggregation which occurred in test tubes containing platelet suspension and PAF preparation was evaluated as 100%. The aggregation which still occurred during the inhibition of the PAF induced platelet aggregation due to the addition of the test substances was measured, and the resulting aggregation inhibition was calculated therefrom in %.

Data set [5] deals with mice. Particulars: mouse, in vivo, 1440 min. The method, then:
2. Determination of Minimum Toxic Dose
Maximum doses of 300 mg/kg of the test substance were administered orally to male mice weighing 20-25 g. The animals were observed carefully for 3 hours for toxicity symptoms. In addition, all symptoms and deaths were recorded over a period of 24 hours after administration. Associated symptoms were also observed and recorded. If death or severe toxic symptoms were observed, additional mice were administered increasingly lower doses. The lowest dose which produced death or severe toxic symptoms is given in the following Table B as the minimum toxic dose.

Where [6] appears, read: 0.5 min, after 30 seconds, read-out: % inhibition of histamine-induced ileum contractions after 30 seconds.
[7] abbreviates: 10 min, after 10 minutes (after washing), read-out: % inhibition of histamine-induced ileum contractions after 10 minutes.

Molecules are shown by their SMILES. Read-outs that look alike come from different tables or passages of the source.

T1 sequence (P31389 whole entry): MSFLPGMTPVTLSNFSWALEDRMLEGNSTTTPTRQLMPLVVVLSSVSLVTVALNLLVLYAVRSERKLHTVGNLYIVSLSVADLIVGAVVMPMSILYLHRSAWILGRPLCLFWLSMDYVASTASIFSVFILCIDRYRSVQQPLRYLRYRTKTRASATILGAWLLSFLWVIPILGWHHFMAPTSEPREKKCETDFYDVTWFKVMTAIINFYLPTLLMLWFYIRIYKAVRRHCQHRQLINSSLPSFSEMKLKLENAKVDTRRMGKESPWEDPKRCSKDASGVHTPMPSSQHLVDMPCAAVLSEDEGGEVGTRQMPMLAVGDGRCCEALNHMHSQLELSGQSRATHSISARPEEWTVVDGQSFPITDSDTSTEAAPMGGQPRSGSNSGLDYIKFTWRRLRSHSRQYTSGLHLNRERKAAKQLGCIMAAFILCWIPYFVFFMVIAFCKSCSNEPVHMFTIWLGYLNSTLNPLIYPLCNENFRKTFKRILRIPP

In general, inhibition refers to the percentage by which the read-out fell short of the control. For orientation: inhibition in vivo means the change of the read-out against control, counted positive when it falls. A high value points to a response far below the control. Regarding `Cc1ccnc(N2CCN(CCCCC3Sc4ccccc4N(C)C3=O)CC2)c1` (centres unmarked) [Example 3, 4-methyl-2-{4-[4-(4-methylpyridin-2-yl)-piperazin-1-yl]butyl}-2H-1,4-benzothiazine-3(4H)-one], the inhibition at 1 µM is 66% in data set [1] (setting [6]) and 28% in data set [1] (setting [7]). The inhibition in vivo at 20 µmol/kg was 80% in data set [2] and 55% in data set [3].
For the compound `Cc1ccnc(N2CCN(CCCC3Sc4cc(C)ccc4NC3=O)CC2)c1` (centres unmarked) [Example 10], the inhibition at 10 µM in data set [4] is 74%. Further, the inhibition at 1 µM in data set [1] (setting [6]) was determined as 42%; in data set [1] (setting [7]) it was 36%. Further, the inhibition in vivo at 20 µmol/kg came out at 70% in data set [2] and 35% in data set [3].
In data set [5], `O=C1Nc2ccccc2SC1CCCCN1CCN(c2ncccn2)CC1` (centres unmarked) [Example 12] came in with a Minimum toxic dose of 300 mg/kg. The inhibition in vivo at 20 µmol/kg in data set [2] came to 80%; in data set [3], 50%.
`Cc1ccc(N2CCN(CCCCC3Sc4ccccc4NC3=O)CC2)nc1` (centres unmarked) [Example 13] registered a Minimum toxic dose in data set [5] of 100 mg/kg. The inhibition at 1 µM in data set [1] (setting [6]) is 42%; in data set [1] (setting [7]) it was 15%. Besides, the inhibition in vivo at 20 µmol/kg in data set [2] turned out to be 55%; in data set [3] it was 30%.
In the case of `O=C1Nc2ccccc2SC1CCCCN1CCN(c2ccccn2)CC1` (centres unmarked) [Example 17], the inhibition in vivo at 20 µmol/kg in data set [2] is 70%; in data set [3] it was 35%.
As to `Cc1ccnc(N2CCN(CCCCC3Sc4cc(F)ccc4NC3=O)CC2)c1` (centres unmarked) [Example 18], the inhibition at 10 µM in data set [4] was 76%. Further, the values for the inhibition at 1 µM in data set [1] (setting [6]) and in data set [1] (setting [7]) were 78% and 83%, respectively. Also, the inhibition in vivo at 20 µmol/kg was determined as 80% in data set [2] and 53% in data set [3].
Take `COc1ccc2c(c1)SC(CCCCN1CCN(c3cc(C)ccn3)CC1)C(=O)N2` (centres unmarked) [Example 19, 7-methoxy-2-{4-[4-(4-methylpyridin-2-yl)-piperazin-1-yl]-butyl}-2H-1,4-benzothiazine-3(4H)-one]: the results for the inhibition at 1 µM in data set [1] (setting [6]) and in data set [1] (setting [7]) were 60% and 42%, respectively. Moreover, the results for the inhibition in vivo at 20 µmol/kg in data set [2] and in data set [3] were 80% and 60%, respectively.
`Cc1ccnc(N2CCN(CCCCC3Sc4cc(C)c(C)cc4NC3=O)CC2)c1` (centres unmarked) [Example 21] registered an inhibition at 10 µM in data set [4] of 37%. Further, the inhibition at 1 µM in data set [1] (setting [6]) is 50%; in data set [1] (setting [7]), 89%. The inhibition in vivo at 20 µmol/kg in data set [2] was 78%; in data set [3], 55%.
As to `Cc1ccnc(N2CCN(CCCCC3Oc4ccc(Cl)cc4NC3=O)CC2)c1` (centres unmarked) [Example 23], the inhibition at 1 µM in data set [1] (setting [6]) was 70%; in data set [1] (setting [7]), 83%.
Regarding `Cc1ccnc(N2CCN(CCCCC3Oc4ccc(C)cc4NC3=O)CC2)c1` (centres unmarked) [Example 24], the inhibition at 1 µM in data set [1] (setting [6]) worked out at 70%; in data set [1] (setting [7]), 86%. In addition, the inhibition in vivo at 20 µmol/kg in data set [2] was 80%; in data set [3], 60%.
In the same order, the values of `Cc1ccnc(N2CCN(CCCCC3Sc4cc(O)ccc4NC3=O)CC2)c1` (centres unmarked) [Example 25] are 50%, 32%, 50% and 15%.
In data set [4], `Cc1ccnc(N2CCN(CCCCC3Sc4cc(Cl)ccc4NC3=O)CC2)c1` (centres unmarked) [Example 27] returned an inhibition at 10 µM of 35%. The values for the inhibition at 1 µM in data set [1] (setting [6]) and in data set [1] (setting [7]) were 16% and 72%, respectively. The figures for the inhibition in vivo at 20 µmol/kg in data set [2] and in data set [3] were 60% and 35%, respectively.
Compound `CCCCN1C(=O)C(CCCCN2CCN(c3cc(C)ccn3)CC2)Sc2ccccc21` (centres unmarked) [Example 28] gave an inhibition at 10 µM in data set [4] of 45%. Besides, the inhibition at 1 µM in data set [1] (setting [6]) worked out at 38%; in data set [1] (setting [7]), 45%. In addition, the inhibition in vivo at 20 µmol/kg in data set [2] is 65%; in data set [3] it was 40%.
